The record followed here is ChEMBL document CHEMBL4229452, “Expanding chemical space of DNA-binding molecules with three base-binding units” (Bioorg Med Chem Lett, 2018).

Common to all, as to assay type: nucleic-acid assay
Assay [1] concerns dsDNA. Briefly: Binding affinity to 5'-(CTAA CGG AATG)-3'/5'-(CATT CGG TTAG)-3' duplex DNA (unknown origin) at < 10 uM by fluorescence titration method.
In assay [2] the test system is dsDNA. Briefly: Binding affinity to 5'-(CTAA GGC AATG)-3'/5'-(CATT GGC TTAG)-3' duplex DNA (unknown origin) at < 10 uM by fluorescence titration method.
Assay [3] deals with dsDNA. Briefly: Binding affinity to 5'-(CTAA CGG AATG)-3'/5'-(CATT CGG TTAG)-3' duplex DNA (unknown origin) assessed as change in melting temperature at 20 uM by UV-spectrophotometric method.
In assay [4] the test system is dsDNA. Briefly: Binding affinity to 5'-(CTAA GGC AATG)-3'/5'-(CATT GGC TTAG)-3' duplex DNA (unknown origin) assessed as change in melting temperature at 20 uM by UV-spectrophotometric method.
The subject of assay [5] is dsDNA. Briefly: Binding affinity to 5'-(CTAA CGG AATG)-3'/5'-(CATT CGG TTAG)-3' duplex DNA (unknown origin) assessed as apparent association […] constant at 60 uM by isothermal titration calorimetric method.
Assay [6] deals with dsDNA. Briefly: Binding affinity to 5'-(CTAA GGC AATG)-3'/5'-(CATT GGC TTAG)-3' duplex DNA (unknown origin) at 7.5 uM by fluorescence titration method.
For assay [7], the system named is dsDNA. Briefly: Binding affinity to 5'-(CTAA CGA AATG)-3'/5'-(CATT GGT TTAG)-3' duplex DNA (unknown origin) assessed as melting temperature at 5 uM by fluorimetric method.
The test system of assay [8] is dsDNA. Briefly: Binding affinity to 5'-(CTAA GGC AATG)-3'/5'-(CATT CGG TTAG)-3' duplex DNA (unknown origin) assessed as melting temperature at 5 uM by fluorimetric method.
Assay [9] deals with dsDNA. Briefly: Binding affinity to 5'-(CTAA GGA AATG)-3'/5'-(CATT CGT TTAG)-3' duplex DNA (unknown origin) assessed as melting temperature at 5 uM by fluorimetric method.
The subject of assay [10] is dsDNA. Briefly: Binding affinity to 5'-(CTAA CGG AATG)-3'/5'-(CATT CGG TTAG)-3' duplex DNA (unknown origin) at 7.5 uM by fluorescence titration method.
The test system of assay [11] is dsDNA. Briefly: Binding affinity to 5'-(CTAA CGT AATG)-3'/5'-(CATT GGA TTAG)-3' duplex DNA (unknown origin) assessed as melting temperature at 5 uM by fluorimetric method.
The test system of assay [12] is dsDNA. Briefly: Binding affinity to 5'-(CTAA GGT AATG)-3'/5'-(CATT CGA TTAG)-3' duplex DNA (unknown origin) assessed as melting temperature at 5 uM by fluorimetric method.
The subject of assay [13] is dsDNA. Briefly: Binding affinity to 5'-(CTAA CGG AATG)-3'/5'-(CATT GGC TTAG)-3' duplex DNA (unknown origin) assessed as melting temperature at 5 uM by fluorimetric method.

Each structure is given as a SMILES string. Activity calls are given as the source filed them. The rule behind the calls is not given here.

Turning to `Cc1ccc2ccc(NC(=O)OCCCNCCCOC(=O)Nc3ccc4ccc(C)nc4n3)nc2n1`, the outcome in the assay with dsDNA [1] and in the assay with dsDNA [2] was Active. The values for the ΔTm in the assay on dsDNA [3] and in the assay with dsDNA [4] were 23 °C and 2 °C, respectively. Moreover, the Ka in the assay on dsDNA [5] was found to be 2.09 ×10⁷ /M.
In the case of `Cc1ccc2ccc(NC(=O)OCCCN(CCCOC(=O)Nc3ccc4ccc(C)nc4n3)CCCOC(=O)Nc3ccc4ccc(C)nc4n3)nc2n1`, the result with dsDNA [6] and with dsDNA [10] was Active. Besides, the Tm was 24.1 °C in the assay with dsDNA [7]; 34.7 °C in the assay with dsDNA [8]; 26.7 °C in the assay with dsDNA [9]; 24.9 °C in the assay with dsDNA [11]; 27.1 °C with dsDNA [12]; 26.5 °C in the assay on dsDNA [13]. The ΔTm with dsDNA [3] worked out at 22.9 °C; in the assay on dsDNA [4] it was 1.6 °C. In the assay on dsDNA [5], the outcome was inactive.
